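Five compound concentrations were applied to cells in 96-well plates for 48 hours; endpoints were derived by simple linear interpolation of the resulting dose-response curve. The concentration for 50% growth inhibition is given as GI50. TGI denotes the concentration required for complete inhibition of growth.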
Assays:
Assay in all cases: growth of human tumour cells (NCI), 48 h
[1] = tested on: BT-549 breast
[2] = tested on: A498 renal
[3] = tested on: SNB-75 CNS
[4] = tested on: TK-10 renal
[5] = tested on: MALME-3M melanoma
[6] = tested on: SR leukemia
[7] = tested on: U251 CNS
[8] = tested on: T-47D breast
[9] = tested on: HCT-15 colon
[10] = tested on: KM12 colon

Structure (SMILES)	GI50 [1]	TGI [1]	GI50 [2]	TGI [2]	GI50 [3]	TGI [3]	GI50 [4]	TGI [4]	GI50 [5]	TGI [5]	GI50 [6]	TGI [6]	GI50 [7]	TGI [7]	GI50 [8]	TGI [8]	GI50 [9]	TGI [9]	TGI [10]	GI50 [10]
CCN(CC)c1ccc(C(O)C2=CC(=O)c3ccccc3C2=O)cc1 (centres undefined)	3.07 µM	8.22 µM	2.36 µM	8.35 µM	1.87 µM	5.57 µM	1.51 µM	3.16 µM	1.59 µM	3.13 µM	0.694 µM	5.26 µM	1.32 µM	7.34 µM	2.69 µM	> 100 µM	3.03 µM	> 32.1 µM	–	–
CC1CCCC(C(O)CC2CC(=O)NC(=O)C2)C1O (centres undefined)	–	> 100 µM	–	> 100 µM	–	> 100 µM	–	> 100 µM	–	> 100 µM	–	> 100 µM	–	> 100 µM	–	> 100 µM	–	> 100 µM	> 100 µM	–
N=c1ccn(O)cc1/C=C1/C(=O)Nc2ccccc21	> 100 µM	> 100 µM	> 100 µM	> 100 µM	> 100 µM	> 100 µM	> 100 µM	> 100 µM	> 100 µM	> 100 µM	> 100 µM	> 100 µM	> 100 µM	> 100 µM	> 100 µM	> 100 µM	> 100 µM	> 100 µM	> 100 µM	> 100 µM
CS(=O)(=O)CCc1cccc(C(=O)c2cnn(-c3ccc(F)cc3)c2N)c1	> 25 µM	> 25 µM	> 25 µM	> 25 µM	> 25 µM	> 25 µM	> 25 µM	> 25 µM	> 25 µM	> 25 µM	> 25 µM	> 25 µM	> 25 µM	> 25 µM	> 25 µM	> 25 µM	> 25 µM	> 25 µM	> 25 µM	> 25 µM
CC(=O)c1c(C)[nH]c(-c2nc3ccc(N4CCN(C)CC4)cc3[nH]2)c1-c1ccc(N(C)C)cc1	3.05 µM	18.6 µM	0.323 µM	1.98 µM	0.0456 µM	1.74 µM	0.294 µM	15.8 µM	0.812 µM	5.1 µM	0.923 µM	6.81 µM	2.11 µM	> 65.5 µM	0.434 µM	16.6 µM	0.478 µM	14.1 µM	20.2 µM	1.34 µM
NCCOCCOCCNc1nc(-c2ccccc2)nc(N2CCN(c3ccccn3)CC2)n1	11.6 µM	24 µM	3.91 µM	18.4 µM	14.3 µM	30.2 µM	–	–	11.3 µM	26.2 µM	1.62 µM	4.64 µM	12.1 µM	26.3 µM	11.7 µM	30.3 µM	13.1 µM	27.9 µM	31 µM	16.1 µM
CCN(CC)CC(O)CNc1c2ccc([N+](=O)[O-])cc2nc2cc(OC)c(OC)cc12 (centres undefined)	1.81 µM	3.85 µM	1.36 µM	3.08 µM	0.488 µM	1.88 µM	1.94 µM	9.79 µM	0.249 µM	0.573 µM	0.303 µM	11.1 µM	–	–	0.369 µM	1.62 µM	0.854 µM	3.6 µM	1.37 µM	0.343 µM
